{"source": "patent US20090215748A1", "about": "“FXR agonists for treating vitamin D associated diseases” (Wyeth, priority 2007, published 2009)", "assay_type_in_all_cases": "in vivo", "key": {"OVX rats": {"system": "OVX rats", "experiment": "OVX-induced bone loss in OVX rats", "conditions": "3 and 30 mg/kg, 6-10 weeks of treatment", "excerpt": "OVX rats are rats subjected to bilateral ovariectomy, which results in development of osteopenia. Two studies have been conducted to evaluate the effect of one of the FXR agonists disclosed herein, isopropyl 3-(3,4-difluorobenzoyl)-1,1-dimethyl-1,2,3,6-tetrahydroazepino[4,5-b]-indole-5-carboxylate, in OVX rats. […] The exposure level of the compound in bone tissue of the rats was not studied and the EC50 of the compound in bone cells was not studied. Accordingly, the reason for the absence of an observable effect has not been determined."}, "CYP27B1 [1]": {"system": "CYP27B1", "experiment": "CYP27B1 expression in FXR deficient (FXR KO) mice, 7 day treatment (FIG. 1)"}, "KKAy mice [2]": {"system": "KKAy mice", "experiment": "Hepatic lipid metabolism and deposition in the KKAy model of diabetic nephropathy", "excerpt": "The KKAy mice are diabetic mice characterized by hyperglycemia and insulin resistance and are renally impaired with nodular glomerulosclerosis, mesangial proliferation, and abuminuria that increases with age or with a high cholesterol diet. Abnormal lipid metabolism and renal lipid accumulation may contribute to diabetic nephropathy. Administration of FXR agonist, Compound A (isopropyl 3-(3,4-difluorobenzoyl)-1,1-dimethyl-1,2,3,6-tetrahydroazepino[4,5-b]indole-5-carboxylate) improves hepatic lipid metabolism and deposition in the KKAy model of diabetic nephropathy."}, "CYP27B1 [3]": {"system": "CYP27B1", "experiment": "Gene profiling of kidneys isolated from KKAy mice treated with Compound A", "protocol": "To examine the role of FXR in the kidney, gene-profiling experiments were performed using kidneys isolated from KKAy mice treated with Compound A. Genes involved in vitamin D synthesis, calcium mobilization, amino acid metabolism, inflammation, oxidative phosphorylation, and nitric oxide production were regulated by Compound A treatment. […] The CYP27B1 gene, expressed in the proximal tubes of the kidney, encodes 25-hydroxyvitamin D3 1α-hydroxylase, which generates the active form of vitamin D, 1α,25-dihydroxyvitamin D3, from a proform of vitamin D, 25 hydroxyvitamin D3."}, "CYP27B1 [4]": {"system": "CYP27B1", "experiment": "CYP27B1 expression in wild (WT) mice, 7 day treatment (FIG. 1)"}, "KKAy mice [5]": {"system": "KKAy mice", "experiment": "Serum creatinine level in KKAy mice, 7 days oral dosing (FIG. 3)", "conditions": "orally once a day for seven days, not statistically significant"}, "CYP27B1 [6]": {"system": "CYP27B1", "experiment": "CYP27B1 gene expression in chow fed KKAy mice, 7 day treatment (FIG. 4)"}, "renin": {"system": "renin", "experiment": "Renal renin gene expression in KKAy mice, 4 weeks treatment (FIG. 6)", "conditions": "once a day for 4 weeks", "excerpt": "Vitamin D and its receptor vitamin D receptor (VDR) may regulate the cardiovascular system. VDR deficient and CYP27B1 deficient mice have increased blood pressure and left ventricle hypertrophy."}, "MMP-14": {"system": "MMP-14", "experiment": "MMP-14 gene expression in chow fed KKAy mice, 7 day treatment (FIG. 5)"}}, "data": [{"molecule": "CC(C)OC(=O)C1=CN(C(=O)c2ccc(F)c(F)c2)CC(C)(C)c2c1[nH]c1ccccc21", "note": "[Compound A, isopropyl 3-(3,4-difluorobenzoyl)-1,1-dimethyl-1,2,3,6-tetrahydroazepino[4,5-b]indole-5-carboxylate]", "values": [{"measurement": "effect on preventing or restoring OVX-induced bone loss", "setting": "OVX rats", "result": "did not show any effect"}, {"measurement": "effect on the expression of CYP27B1", "setting": "CYP27B1 [1]", "result": "No effect"}, {"measurement": "hepatic lipid metabolism and deposition", "setting": "KKAy mice [2]", "result": "improves"}, {"measurement": "CYP27B1 gene expression", "setting": "CYP27B1 [3]", "result": "upregulated"}, {"measurement": "expression of CYP27B1, induction", "setting": "CYP27B1 [4]", "result": 15, "unit": "fold"}, {"measurement": "reduction in serum creatinine levels", "setting": "KKAy mice [5]", "result": 20, "unit": "%"}, {"measurement": "CYP27B1 gene expression", "setting": "CYP27B1 [6]", "result": "upregulated"}, {"measurement": "renal renin gene expression", "setting": "renin", "result": "significant reduction"}, {"measurement": "MMP-14 gene expression", "setting": "MMP-14", "result": "decreased"}]}]}
